Reference: patent US20250262222A1, “HETEROCYCLIC COMPOUNDS, COMPOSITIONS THEREOF, AND METHODS OF TREATMENT THEREWITH” (BeiGene Switzerland GmbH, priority 2022, published 2025)

Test system: pERK1/2(THR202/TYR204) level in SW620 cell line
Assay: KRAS G12V pERK assay
Assay type: cell-based
Conditions: Homo sapiens, SW-620; SW620 cells, 2 hrs compound treatment, HTRF
Experimental: (§1) SW620 cell line was used in this study. Cells were maintained in RPMI 1640 supplemented with 10% fetal bovine serum (Thermo Fisher), 50 units/mL penicillin and streptomycin (Thermo Fisher) and kept at 37° C. in a humidified atmosphere of 5% CO2 in air. Cells were reinstated from frozen stocks that were laid down within 30 passages from the original cells purchased. 40000 cells per well were seeded into a 96-well plate and incubated overnight. Cells were treated with a 10-point dilution series. The final compound concentration is from 0 to 10 μM. After 2 hrs compound treatment, cells were lysed, and the pERK1/2(THR202/TYR204) level in the cell lysates was detected by HTRF kit (Cisbio). In brief, a total of 16 μL of cell lysate from each well of a 96-well plate was transferred to a 384-well white assay plate. Lysate from each well was incubated with 2 μL of Eu3+-cryptate (donor) labeled anti-phospho-ERK1/2 and 2 μL of D2 (acceptor) labeled anti-phospho-ERK1/2 antibodies (Cisbio) overnight in dark at room temperature. When donor and acceptor are in close proximity, excitation of the donor with laser triggers a Fluorescence Resonance Energy Transfer (FRET) towards the acceptor, which in turn fluoresces at 655 nm wavelength. FRET signals were measured using a PHERAstar FSX reader (BMG Labtech). IC50 determination was performed by fitting the curve of percent inhibition versus the log of the inhibitor concentration using Dotmatics.

SMILES | IC50
Nc1cc(Cl)c(C(F)(F)F)c(-c2nc3c4c(nc(OC[C@@]56CCCN5C[C@H](F)C6)nc4c2F)N2CCOC[C@H]2CO3)c1 [Example 3, 3-chloro-5-((S)-1-fluoro-11-(((2R,7aS)-2-fluorotetrahydro-1H-pyrrolizin-7a(5H)-yl)methoxy)-5a,6,8,9-tetrahydro-5H-4,7-dioxa-3,9a,10,12-tetraazabenzo[4,5]cyclohepta[1,2,3-de]naphthalen-2-yl)-4-(trifluoromethyl)aniline] | 133 nM
C#Cc1c(F)ccc2cc(O)cc(-c3nc4c5c(nc(OC[C@@]67CCCN6C[C@H](F)C7)nc5c3F)N3CCOC[C@H]3CO4)c12 [Example 4, 5-ethynyl-6-fluoro-4-((S)-1-fluoro-11-(((2R,7aS)-2-fluorotetrahydro-1H-pyrrolizin-7a(5H)-yl)methoxy)-5a,6,8,9-tetrahydro-5H-4,7-dioxa-3,9a,10,12-tetraazabenzo[4,5]cyclohepta[1,2,3-de]naphthalen-2-yl)naphthalen-2-ol] | 6.7 nM
N#Cc1c(N)sc2c(F)ccc(-c3c(Cl)c4c5c(nc(OC[C@@]67CCCN6C[C@H](F)C7)nc5c3F)N3CCOC[C@H]3CO4)c12 (single isomer, unassigned) [Example 14-Isomer 2] | 33 nM
C#Cc1c(F)ccc2cc(O)cc(-c3nc4c5c(nc(OCC6(CN7CCOCC7)CC6)nc5c3F)N3CCOC[C@H]3CO4)c12 [Example 8, (S)-5-ethynyl-6-fluoro-4-(1-fluoro-11-((1-(morpholinomethyl)cyclopropyl)methoxy)-5a,6,8,9-tetrahydro-5H-4,7-dioxa-3,9a,10,12-tetraazabenzo[4,5]cyclohepta[1,2,3-de]naphthalen-2-yl)naphthalen-2-ol] | 43 nM
N#Cc1c(N)sc2c(F)ccc(-c3c(Cl)c4c5c(nc(OC[C@@]67CCCN6C[C@H](F)C7)nc5c3F)N3C5CCC3(COC5)CO4)c12 (stereo partly drawn) [Example 15, 2-amino-4-(11-chloro-9-fluoro-7-(((2R,7aS)-2-fluorotetrahydro-1H-pyrrolizin-7a(5H)-yl)methoxy)-3,4-dihydro-1H,13H-4,13a-ethano[1,4]oxazino[3′,4′:3,4][1,4]oxazepino[5,6,7-de]quinazolin-10-yl)-7-fluorobenzo[b]thiophene-3-carbonitrile] | 83 nM
C#Cc1c(F)ccc2cc(O)cc(-c3nc4c5c(nc(OC[C@@]67CCCN6C[C@H](F)C7)nc5c3F)N3CCOCCC3CO4)c12 (stereo partly drawn) [Example 22, 5-ethynyl-6-fluoro-4-(1-fluoro-12-(((2R,7aS)-2-fluorotetrahydro-1H-pyrrolizin-7a(5H)-yl)methoxy)-5,5a,6,7,9,10-hexahydro-4,8-dioxa-3,10a,11,13-tetraazanaphtho[1,8-ab]heptalen-2-yl)naphthalen-2-ol] | 13 nM
Nc1cc(Cl)c(C(F)(F)F)c(-c2nc3c4c(nc(OC[C@@]56CCCN5C[C@H](F)C6)nc4c2F)N2CCOC[C@@H]2CCO3)c1 [Example 16, 3-chloro-5-((S)-1-fluoro-12-(((2R,7aS)-2-fluorotetrahydro-1H-pyrrolizin-7a(5H)-yl)methoxy)-5,6,6a,7,9,10-hexahydro-4,8-dioxa-3,10a,11,13-tetraazabenzo[4,5]cycloocta[1,2,3-de]naphthalen-2-yl)-4-(trifluoromethyl)aniline] | 24 nM
C#Cc1c(F)ccc2cc(O)cc(-c3nc4c5c(nc(OC[C@@]67CCCN6C[C@H](F)C7)nc5c3F)N3CCCOC[C@H]3CO4)c12 [Example 20, 5-ethynyl-6-fluoro-4-((S)-1-fluoro-12-(((2R,7aS)-2-fluorotetrahydro-1H-pyrrolizin-7a(5H)-yl)methoxy)-5a,6,9,10-tetrahydro-5H,8H-4,7-dioxa-3,10a,11,13-tetraazanaphtho[1,8-ab]heptalen-2-yl)naphthalen-2-ol] | 1.3 nM
C#Cc1c(F)ccc2cc(O)cc(-c3nc4c5c(nc(OC[C@@H]6C[C@@H](F)CN6C)nc5c3F)N3CCOC[C@H]3CO4)c12 [Example 7, 5-ethynyl-6-fluoro-4-((S)-1-fluoro-11-(((2S,4R)-4-fluoro-1-methylpyrrolidin-2-yl)methoxy)-5a,6,8,9-tetrahydro-5H-4,7-dioxa-3,9a,10,12-tetraazabenzo[4,5]cyclohepta[1,2,3-de]naphthalen-2-yl)naphthalen-2-ol] | 72 nM
C#Cc1c(F)ccc2cc(O)cc(-c3cc4c5c(nc(OC[C@@]67CCCN6C[C@H](F)C7)nc5c3F)N3CCOC[C@H]3CO4)c12 [Example 2, 5-ethynyl-6-fluoro-4-((S)-4-fluoro-2-(((2R,7aS)-2-fluorotetrahydro-1H-pyrrolizin-7a(5H)-yl)methoxy)-8a,9,11,12-tetrahydro-8H-[1,4]oxazino[3′,4′:3,4][1,4]oxazepino[5,6,7-de]quinazolin-5-yl)naphthalen-2-ol] | 178 nM
CCc1c(F)ccc2cc(O)cc(-c3nc4c5c(nc(OC[C@@]67CCCN6C[C@H](F)C7)nc5c3F)N3CCOC[C@H]3CO4)c12 [Example 5, 5-ethyl-6-fluoro-4-((S)-1-fluoro-11-(((2R,7aS)-2-fluorotetrahydro-1H-pyrrolizin-7a(5H)-yl)methoxy)-5a,6,8,9-tetrahydro-5H-4,7-dioxa-3,9a,10,12-tetraazabenzo[4,5]cyclohepta[1,2,3-de]naphthalen-2-yl)naphthalen-2-ol] | 22 nM
N#Cc1c(N)sc2c(F)ccc(-c3cc4c5c(nc(OC[C@@]67CCCN6C[C@H](F)C7)nc5c3F)N3CCOC[C@H]3CO4)c12 [Example 1, 2-amino-7-fluoro-4-((S)-4-fluoro-2-(((2R,7aS)-2-fluorotetrahydro-1H-pyrrolizin-7a(5H)-yl)methoxy)-8a,9,11,12-tetrahydro-8H-[1,4]oxazino[3′,4′:3,4][1,4]oxazepino[5,6,7-de]quinazolin-5-yl)benzo[b]thiophene-3-carbonitrile] | 161 nM
Nc1cc(Cl)c(C(F)(F)F)c(-c2nc3c4c(nc(OC[C@@]56CCCN5C[C@H](F)C6)nc4c2F)N2CCOCCC2CO3)c1 (stereo partly drawn) [Example 21, 3-chloro-5-(1-fluoro-12-(((2R,7aS)-2-fluorotetrahydro-1H-pyrrolizin-7a(5H)-yl)methoxy)-5,5a,6,7,9,10-hexahydro-4,8-dioxa-3,10a,11,13-tetraazanaphtho[1,8-ab]heptalen-2-yl)-4-(trifluoromethyl)aniline] | 74 nM
N#Cc1c(N)sc2c(F)ccc(-c3c(Cl)c4c5c(nc(OC[C@@]67CCCN6C[C@H](F)C7)nc5c3F)N3CCOC[C@@H]3CCO4)c12 [Example 18] | 30 nM
Oc1cc(Cl)c(C2CC2)c(-c2nc3c4c(nc(OC[C@@]56CCCN5C[C@H](F)C6)nc4c2F)N2CCOC[C@H]2CO3)c1 [Example 6, 3-chloro-4-cyclopropyl-5-((S)-1-fluoro-11-(((2R,7aS)-2-fluorotetrahydro-1H-pyrrolizin-7a(5H)-yl)methoxy)-5a,6,8,9-tetrahydro-5H-4,7-dioxa-3,9a,10,12-tetraazabenzo[4,5]cyclohepta[1,2,3-de]naphthalen-2-yl)phenol] | 118 nM

Test system: pERK1/2(THR202/TYR204) level in AsPC-1 cell line
Assay: KRAS G12D pERK assay
Assay type: cell-based
Conditions: Homo sapiens, ASPC1, 2 h, AsPC-1 cells, 2 h compound treatment, HTRF
Experimental: as §1, with “AsPC-1” for “SW620”, “RPMI-1640” for “RPMI 1640”, “30000” for “40000”, “h” for “hrs”

SMILES | IC50
Cc1cc(N)cc(-c2nc3c4c(nc(OCC5(C(F)F)COC5)nc4c2F)N2C[C@H]4CC[C@H](N4)[C@H]2CCO3)c1C(F)(F)F [Example 26, 3-((6aR,7S,10R)-13-((3-(difluoromethyl)oxetan-3-yl)methoxy)-1-fluoro-5,6,6a,7,8,9,10,11-octahydro-4-oxa-3,11a,12,14,15-pentaaza-7,10-methanocyclohepta[4,5]cycloocta[1,2,3-de]naphthalen-2-yl)-5-methyl-4-(trifluoromethyl)aniline] | 142 nM
C#Cc1c(F)ccc2cc(O)cc(-c3nc4c5c(nc(OC[C@@]67CCCN6C[C@H](F)C7)nc5c3F)N3CCOC[C@H]3CO4)c12 [Example 4, 5-ethynyl-6-fluoro-4-((S)-1-fluoro-11-(((2R,7aS)-2-fluorotetrahydro-1H-pyrrolizin-7a(5H)-yl)methoxy)-5a,6,8,9-tetrahydro-5H-4,7-dioxa-3,9a,10,12-tetraazabenzo[4,5]cyclohepta[1,2,3-de]naphthalen-2-yl)naphthalen-2-ol] | 76 nM

Test system: ERK1/2 phosphorylation in SW1990 tumors
Assay: SW1990 PD studies
Assay type: in vivo, Female NCG mice
Conditions: oral administration
Experimental: Female NCG mice were subcutaneously implanted with 5×10^6 SW1990 cells per 200 μL PBS/matrigel in the right flank. After inoculation, when tumors reached a mean volume of approximately 350-450 mm^3 in size, mice were randomized into treatment groups. Randomized mice would receive a single dose of vehicle consisting of 0.5% MC or test compounds at various dose (e.g. 30, 50, or 100 mg/kg) by oral administration. Plasma was collected at 0.5, 2, 4, and 7 hours, and tumor was collected at 7 hours after dosing to determine exposure levels. Tumor fragments were snap frozen in homogenization tubes with liquid nitrogen and homogenized with T-PER Tissue Protein Extraction Buffer with protease and phosphatase inhibitors added fresh before use. Tumor lysates were then analyzed for ERK1/2 phosphorylation.

SMILES | oral pharmacodynamic effects
Cc1cc(N)cc(-c2nc3c4c(nc(OCC5(C(F)F)COC5)nc4c2F)N2C[C@H]4CC[C@H](N4)[C@H]2CCO3)c1C(F)(F)F [Example 26, 3-((6aR,7S,10R)-13-((3-(difluoromethyl)oxetan-3-yl)methoxy)-1-fluoro-5,6,6a,7,8,9,10,11-octahydro-4-oxa-3,11a,12,14,15-pentaaza-7,10-methanocyclohepta[4,5]cycloocta[1,2,3-de]naphthalen-2-yl)-5-methyl-4-(trifluoromethyl)aniline] | enhanced oral pharmacodynamic effects
